# Measurements published in PMC4390550 (Journal of the American Chemical Society, 2015).
# Counter-ions that a name gives are not always drawn.
# What was measured:
# alanine aminotransferase = conditions: cited from earlier work
# [1] = test system: aspartate aminotransferase; conditions: cited from earlier work
# infantile spasms = conditions: cited from earlier work
# GABA-AT [2] = molecular target: T1, GABA-AT (Sus scrofa, UniProt P80147); test: Inhibition of GABA-AT, coupled assay with SSDH, Ki by Cheng-Prusoff; assay type: biochemical, pig
# GABA-AT [3] = molecular target: T1, GABA-AT; test: Time-dependent inhibition; assay type: biochemical, pig; conditions: preliminary in vitro results
# GABA-AT [4] = conditions: aromatization mechanism; cited from earlier work
# T1 sequence (P80147 29-500): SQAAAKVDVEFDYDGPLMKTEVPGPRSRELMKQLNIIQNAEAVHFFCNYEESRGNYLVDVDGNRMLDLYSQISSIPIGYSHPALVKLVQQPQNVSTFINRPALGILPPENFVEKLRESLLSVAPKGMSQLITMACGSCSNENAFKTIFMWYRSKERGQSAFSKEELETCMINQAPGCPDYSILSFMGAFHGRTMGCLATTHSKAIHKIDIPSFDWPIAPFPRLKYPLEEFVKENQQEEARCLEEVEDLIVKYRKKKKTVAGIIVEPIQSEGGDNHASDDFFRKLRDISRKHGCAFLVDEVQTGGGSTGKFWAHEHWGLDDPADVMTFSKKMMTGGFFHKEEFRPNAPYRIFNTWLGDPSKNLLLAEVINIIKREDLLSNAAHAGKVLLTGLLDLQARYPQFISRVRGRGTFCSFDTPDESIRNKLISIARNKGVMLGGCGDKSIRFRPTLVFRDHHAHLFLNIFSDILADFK
structure (smiles),measurement,setting,value
N[C@H]1C[C@@H](C(=O)O)CC1=C(F)F [Compound 16],inactivation or inhibition of alanine aminotransferase,alanine aminotransferase,did not inactivate or inhibit
same,inactivation or inhibition of aspartate aminotransferase,[1],did not inactivate or inhibit
same,margin of safety,infantile spasms; compared with vigabatrin,much larger margin of safety than vigabatrin
same,doses that suppressed spasms,infantile spasms; rat,0.1 to 1 mg/kg/day
same,effective doses lower than those for vigabatrin,infantile spasms; rat,> 100 fold
same,time spasms suppression stayed effective,infantile spasms; rat,3 days
"N[C@H]1CC(C(=O)O)S(=O)(=O)C1 (stereo partly drawn) [Compound 19, (4S)-4-Aminotetrahydrothiophene-2-carboxylic acid 1,1-dioxide hydrochloride]",Ki,"GABA-AT [2]; reversible inhibition, pH 8.5, 25 °C, 10 mM GABA",3.2 ± 0.7 mM
"Cl.N[C@@H]1CS[C@@H](C(=O)O)C1 [Compound 18, (2R,4S)-4-Aminotetrahydrothiophene-2-carboxylic acid hydrochloride]",inactivation of GABA-AT (in words),GABA-AT [3],potent inactivators
"Cl.N[C@@H]1CS[C@H](C(=O)O)C1 [Compound 17, (2S,4S)-4-Aminotetrahydrothiophene-2-carboxylic acid hydrochloride]",inactivation of GABA-AT (in words),GABA-AT [3],potent inactivators
"N[C@@H]1CC[C@H](C(=O)O)C1 [Compound 39, (1S,3R)-3-aminocyclopentane-1-carboxylic acid]",inactivation of GABA-AT (in words),GABA-AT [3],not an inactivator
same,reversible inhibition of GABA-AT (in words),GABA-AT [2]; preliminary in vitro results,good competitive inhibitor
C=CC(N)CCC(=O)O (centres unmarked) [vigabatrin],time spasms suppression stayed effective,infantile spasms; rat,1 days
"N[C@H]1C=C(C(=O)O)SC1 [(S)-4-Amino-4,5-dihydro-2-thiophenecarboxylic acid]",inactivation of GABA-AT (in words),GABA-AT [4],known inactivator
same,inactivation of aspartate aminotransferase (in words),[1],inactivator
